Columns and labels:
mouse DGAT1 = target: T1, mouse DGAT1 (Mus musculus, UniProt Q9Z2A7); experiment: DGAT1 inhibitory effect test (microsome fraction, [14C]-oleoyl-CoA, triglyceride radioactivity by TLC); assay type: biochemical; details: 0.5 h; concentration of the test compound 0.1 μg/ml; mouse DGAT1 microsomes, 23° C., 30 minutes; read-out: Inhibitory ratio
T1 construct: made in house; host or cells: insect cells (High Five, Sf9, Sf21, etc.), baculovirus expression system (Invitrogen)
T1 sequence (Q9Z2A7 1-498): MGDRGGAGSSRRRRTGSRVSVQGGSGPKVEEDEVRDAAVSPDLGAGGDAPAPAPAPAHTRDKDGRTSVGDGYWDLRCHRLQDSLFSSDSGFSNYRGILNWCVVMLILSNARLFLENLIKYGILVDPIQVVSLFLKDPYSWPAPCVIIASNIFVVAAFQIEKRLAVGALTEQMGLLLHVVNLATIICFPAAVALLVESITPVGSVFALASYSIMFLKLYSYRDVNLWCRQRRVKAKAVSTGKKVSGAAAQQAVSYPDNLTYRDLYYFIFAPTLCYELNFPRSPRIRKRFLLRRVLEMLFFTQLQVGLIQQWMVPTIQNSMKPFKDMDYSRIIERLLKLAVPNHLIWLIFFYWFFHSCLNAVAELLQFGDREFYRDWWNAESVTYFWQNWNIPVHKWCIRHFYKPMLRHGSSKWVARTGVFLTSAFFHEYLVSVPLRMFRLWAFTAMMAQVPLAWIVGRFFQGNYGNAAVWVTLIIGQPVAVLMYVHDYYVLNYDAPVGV
How it was run: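 Inhibition was scored from radiolabelled triglyceride separated by TLC, relative to vehicle and net of a 0-min background. The reaction ran for 30 min at room temperature (23 °C) in Tris-HCl pH 8.0 with MgCl2, BSA and Triton X-100. Substrates were 30 μM [14C]-oleoyl-CoA and 0.5 mM dioleoylglycerol, with mouse DGAT1 microsomes from baculovirus-infected insect cells as enzyme.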

SMILES	inhibition at 0.1 µg/mL (mouse DGAT1)	melting point
CCOc1cccc(NC(=O)Nc2ccc(N3CCN(C(=O)Nc4cc(OCCO)ccc4Cl)CC3)cc2)c1 [Example 233, 4-{4-[3-(3-ethoxy-phenyl)-ureido]-phenyl}-piperazine-1-carboxylic acid [2-chloro-5-(2-hydroxy-ethoxy)-phenyl]-amide]	≥ 50%	196 to 197 °C
COc1cc(NC(=O)Nc2ccc(N3CCN(C(=O)Nc4cc(OCCO)ccc4Cl)CC3)cc2)cc(OC)c1 [Example 234, 4-{4-[3-(3,5-dimethoxy-phenyl)-ureido]-phenyl}-piperazine-1-carboxylic acid [2-chloro-5-(2-hydroxy-ethoxy)-phenyl]-amide]	≥ 50%	191 to 192 °C
COc1ccccc1NC(=O)Nc1ccc(N2CCN(C(=O)Nc3cc(OCCO)ccc3Cl)CC2)nc1 [Example 235, 4-{5-[3-(2-methoxy-phenyl)-ureido]-pyridin-2-yl}-piperazine-1-carboxylic acid [2-chloro-5-(2-hydroxy-ethoxy)-phenyl]-amide]	≥ 50%	139 to 141 °C
CCOc1cccc(NC(=O)Nc2ccc(N3CCN(C(=O)Nc4cc(OCCO)ccc4Cl)CC3)nc2)c1 [Example 236, 4-{5-[3-(3-ethoxy-phenyl)-ureido]-pyridin-2-yl}-piperazine-1-carboxylic acid [2-chloro-5-(2-hydroxy-ethoxy)-phenyl]-amide]	≥ 50%	140 to 143 °C
Cc1nc(NC(=O)Nc2ccc(N3CCN(C(=O)Nc4cc(OCCO)ccc4Cl)CC3)nc2)sc1C [Example 237, 4-{5-(3-(4,5-dimethyl-thiazol-2-yl)-ureido)-pyridin-2-yl}-piperazine-1-carboxylic acid {2-chloro-5-(2-hydroxy-ethoxy)-phenyl}-amide]	≥ 50%	128 to 129 °C
COc1ccc(C)cc1NC(=O)Nc1ccc(N2CCN(C(=O)Nc3cc(OCCO)ccc3Cl)CC2)nc1 [Example 238, 4-{5-[3-(2-methoxy-5-methyl-phenyl)-ureido]-pyridin-2-yl}-piperazine-1-carboxylic acid [2-chloro-5-(2-hydroxy-ethoxy)-phenyl]-amide]	≥ 50%	132 to 134 °C
COc1ccc(C)cc1NC(=O)Nc1ccc(N2CCN(C(=O)Nc3ccc(OCCO)cc3C(F)(F)F)CC2)c(C)c1 [Example 239, 4-{4-[3-(2-methoxy-5-methyl-phenyl)-ureido]-2-methyl-phenyl}-piperazine-1-carboxylic acid [4-(2-hydroxy-ethoxy)-2-trifluoromethyl-phenyl]-amide]	≥ 50%	225 to 228 °C
O=C(Nc1ccc(N2CCN(C(=O)Nc3ccc(OCCO)cc3C(F)(F)F)CC2)cc1)Nc1ccccc1OC(F)(F)F [Example 240, 4-{4-[3-(2-trifluoromethoxy-phenyl)-ureido]-phenyl}-piperazine-1-carboxylic acid [4-(2-hydroxy-ethoxy)-2-trifluoromethyl-phenyl]-amide]	≥ 50%	112 to 114 °C
CSc1ccccc1NC(=O)Nc1ccc(N2CCN(C(=O)Nc3ccc(OCCO)cc3C(F)(F)F)CC2)cc1 [Example 241, 4-{4-[3-(2-methylsulfanyl-phenyl)-ureido]-phenyl}-piperazine-1-carboxylic acid [4-(2-hydroxy-ethoxy)-2-trifluoromethyl-phenyl]-amide]	≥ 50%	115 to 116 °C
COc1ccc(C)cc1NC(=O)Nc1ccc(N2CCN(C(=O)Nc3ccc(OCCO)cc3C(F)(F)F)CC2)c(C#N)c1 [Example 242, 4-{2-cyano-4-[3-(2-methoxy-5-methyl-phenyl)-ureido]-phenyl}-piperazine-1-carboxylic acid [4-(2-hydroxy-ethoxy)-2-trifluoromethyl-phenyl]-amide]	≥ 50%	135 to 137 °C
O=C(Nc1ccc(N2CCN(C(=O)Nc3ccc(OCCO)cc3C(F)(F)F)CC2)cc1)Nc1ccc2c(c1)CCO2 [Example 243, 4-{4-[3-(2,3-dihydro-benzofuran-5-yl)-ureido]-phenyl}-piperazine-1-carboxylic acid [4-(2-hydroxy-ethoxy)-2-trifluoromethyl-phenyl]-amide]	≥ 50%	212 to 214 °C
O=C(Nc1ccc(N2CCN(C(=O)Nc3ccc(OCCO)cc3C(F)(F)F)CC2)cc1)Nc1cccc2c1OCCO2 [Example 244, 4-{4-[3-(2,3-dihydro-1,4-benzodioxin-5-yl)-ureido]-phenyl}-piperazine-1-carboxylic acid [4-(2-hydroxy-ethoxy)-2-trifluoromethyl-phenyl]-amide]	≥ 50%	127 to 129 °C
O=C(Nc1ccc(N2CCN(C(=O)Nc3ccc(OCCO)cc3C(F)(F)F)CC2)cc1)Nc1ccccc1OC(F)F [Example 245, 4-{4-[3-(2-difluoromethoxy-phenyl)-ureido]-phenyl}-piperazine-1-carboxylic acid [4-(2-hydroxy-ethoxy)-2-trifluoromethyl-phenyl]-amide]	≥ 50%	118 to 120 °C
CCc1csc(NC(=O)Nc2ccc(N3CCN(C(=O)Nc4ccc(OCCO)cc4C(F)(F)F)CC3)cc2)n1 [Example 246, 4-{4-[3-(4-ethyl-thiazol-2-yl)-ureido]-phenyl}-piperazine-1-carboxylic acid [4-(2-hydroxy-ethoxy)-2-trifluoromethyl-phenyl]-amide]	≥ 50%	124 to 125 °C
COc1cccc(NC(=O)Nc2ccc(N3CCN(C(=O)Nc4ccc(OCCO)cc4C(F)(F)F)CC3)cc2)c1OC [Example 247, 4-{4-[3-(2,3-dimethoxy-phenyl)-ureido]-phenyl}-piperazine-1-carboxylic acid [4-(2-hydroxy-ethoxy)-2-trifluoromethyl-phenyl]-amide]	≥ 50%	135 to 138 °C
COc1ccc(C)cc1NC(=O)Nc1ccc(N2CCN(C(=O)Nc3ccc(OCCO)cc3Cl)CC2)cc1 [Example 248, 4-{4-[3-(2-methoxy-5-methyl-phenyl)-ureido]-phenyl}-piperazine-1-carboxylic acid [2-chloro-4-(2-hydroxy-ethoxy)-phenyl]-amide]	≥ 50%	152 to 154 °C
COc1cccc(NC(=O)Nc2ccc(N3CCN(C(=O)Nc4ccc(OCCO)cc4Cl)CC3)cc2)c1 [Example 249, 4-{4-[3-(3-methoxy-phenyl)-ureido]-phenyl}-piperazine-1-carboxylic acid [2-chloro-4-(2-hydroxy-ethoxy)-phenyl]-amide]	≥ 50%	198 to 201 °C
COc1cc(NC(=O)Nc2ccc(N3CCN(C(=O)Nc4ccc(OCCO)cc4Cl)CC3)cc2)cc(OC)c1 [Example 250, 4-{4-[3-(3,5-dimethoxy-phenyl)-ureido]-phenyl}-piperazine-1-carboxylic acid [2-chloro-4-(2-hydroxy-ethoxy)-phenyl]-amide]	≥ 50%	114 to 116 °C
COc1ccccc1NC(=O)Nc1ccc(N2CCN(C(=O)Nc3ccc(OCCO)cc3Cl)CC2)cc1 [Example 251, 4-{4-[3-(2-methoxy-phenyl)-ureido]-phenyl}-piperazine-1-carboxylic acid [2-chloro-4-(2-hydroxy-ethoxy)-phenyl]-amide]	≥ 50%	134 to 136 °C

— patent US20070249620A1, “Urea Derivative” (priority 2004, published 2007)
